Laboratory results: article PMC11695631 (Nature Communications, 2025)

Target: Vesicular monoamine transporter 2 (VMAT2) (Homo sapiens, UniProt Q05940)
Test: cryo-EM structure at […] Å
Type: cell-based

Sequence of Vesicular monoamine transporter 2 (VMAT2) (Q05940 12-514): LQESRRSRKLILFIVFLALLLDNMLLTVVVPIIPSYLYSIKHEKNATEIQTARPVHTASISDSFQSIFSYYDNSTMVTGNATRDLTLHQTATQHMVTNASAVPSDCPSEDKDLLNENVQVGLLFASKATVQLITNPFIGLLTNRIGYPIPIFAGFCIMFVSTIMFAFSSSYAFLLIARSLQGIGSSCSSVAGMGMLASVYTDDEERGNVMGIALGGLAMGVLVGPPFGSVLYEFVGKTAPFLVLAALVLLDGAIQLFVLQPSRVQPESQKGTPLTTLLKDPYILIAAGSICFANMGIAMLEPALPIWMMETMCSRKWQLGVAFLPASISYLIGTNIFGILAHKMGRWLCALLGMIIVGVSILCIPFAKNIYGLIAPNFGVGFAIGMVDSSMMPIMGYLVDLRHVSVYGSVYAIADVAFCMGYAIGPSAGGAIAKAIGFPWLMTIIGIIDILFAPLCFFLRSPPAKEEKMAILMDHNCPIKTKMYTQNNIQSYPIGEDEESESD

IC50: 20.4 ± 4.1 nM
Structure (SMILES): COc1cc2c(cc1OC)C1CC(=O)C(CC(C)C)CN1CC2 (stereo not shown) [TBZ, tetrabenazine]
